Measured values from the supplement of paper PMC10307832.

Tests used:
Assay in all cases: relative viability (nuclei count vs DMSO), 5 days (fraction); higher = more cells survive
Bromopyruvate + Olaparib = compound: C(C(=O)C(=O)O)Br [Bromopyruvate] + O=C(c1cc(Cc2n[nH]c(=O)c3ccccc23)ccc1F)N1CCN(C(=O)C2CC2)CC1 [Olaparib] (partner 8 µM)
Method in brief: (§1)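 Lung cancer cell lines were seeded in 1536-well plates and dosed by pin tool the next day, with either a single drug or a fixed anchor-drug dose combined with five library-drug doses (not always all listed) spaced in √10 steps. Five days later, one step fixed the cells and stained their nuclei (final 0.05% Triton X-100, 1% formaldehyde, 1 ug/ml Hoechst), and nuclei were counted on 4× images. Relative viability is the nuclei count in treated wells divided by the count in vehicle wells, and each value is the median of duplicate plates.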

[1] = compound: C(C(=O)C(=O)O)Br [Bromopyruvate] + Cc1cc(Nc2cc(N3CCN(C)CC3)nc(Sc3ccc(NC(=O)C4CC4)cc3)n2)n[nH]1 [Tozasertib] (partner 0.1 µM)
Method in brief: as §1

[2] = compound: C(C(=O)C(=O)O)Br [Bromopyruvate] + CS(=O)(=O)CCNCc1ccc(-c2ccc3ncnc(Nc4ccc(OCc5cccc(F)c5)c(Cl)c4)c3c2)o1 [Lapatinib] (partner 2 µM)
Method in brief: as §1

[3] = compound: C(C(=O)C(=O)O)Br [Bromopyruvate] + CC(C)C[C@H](NC(=O)[C@H](Cc1ccccc1)NC(=O)c1cnccn1)B(O)O [Bortezomib] (partner 0.002 µM)
Method in brief: as §1

Row | Cell Line | relative viability (Bromopyruvate + Olaparib; first compound 1 µM) | relative viability (Bromopyruvate + Olaparib; first compound 3.162 µM) | relative viability (Bromopyruvate + Olaparib; first compound 10 µM) | relative viability (Bromopyruvate + Olaparib; first compound 31.62 µM) | relative viability (Bromopyruvate + Olaparib; first compound 100 µM) | relative viability ([1]; first compound 1 µM) | relative viability ([1]; first compound 3.162 µM) | relative viability ([1]; first compound 10 µM) | relative viability ([1]; first compound 31.62 µM) | relative viability ([1]; first compound 100 µM) | relative viability ([2]; first compound 1 µM) | relative viability ([2]; first compound 3.162 µM) | relative viability ([2]; first compound 10 µM) | relative viability ([2]; first compound 31.62 µM) | relative viability ([2]; first compound 100 µM) | relative viability ([3]; first compound 1 µM) | relative viability ([3]; first compound 3.162 µM) | relative viability ([3]; first compound 10 µM) | relative viability ([3]; first compound 31.62 µM) | relative viability ([3]; first compound 100 µM)
1 | NCI-H522 | 0.615 | 0.54 | 0.693 | 0.643 | 0.477 | 0.616 | 0.549 | 0.547 | 0.485 | 0.391 |  |  |  |  |  |  |  |  |  | 
2 | HCC-15 | 0.745 | 0.735 | 0.697 | 0.734 | 0.699 | 0.393 | 0.546 | 0.286 | 0.371 | 0.399 | 0.868 | 0.873 | 0.849 | 0.856 | 0.844 | 0.98 | 1.03 | 1.03 | 0.99 | 0.973
3 | A-427 | 0.664 | 0.758 | 0.782 | 0.693 | 0.774 | 0.22 | 0.216 | 0.176 | 0.162 | 0.151 | 1.08 | 1.03 | 1.01 | 1.03 | 1.04 | 0.999 | 1.02 | 0.931 | 1.05 | 1.06
4 | NCI-H23 | 0.318 | 0.316 | 0.321 | 0.399 | 0.196 | 0.347 | 0.388 | 0.361 | 0.291 | 0.105 | 1.05 | 1.04 | 1.16 | 1.06 | 1.04 | 1.03 | 0.991 | 1.25 | 0.941 | 0.839
5 | NCI-H1734 | 0.68 | 0.585 | 0.729 | 0.616 | 0.429 | 0.243 | 0.247 | 0.307 | 0.244 | 0.216 | 1.08 | 0.944 | 1.26 | 1.08 | 1.12 | 0.984 | 0.89 | 1.11 | 0.97 | 1.09
6 | NCI-H1993 | 1.56 | 1 | 0.927 | 1.09 | 1.02 | 0.626 | 0.629 | 0.697 | 0.578 | 0.598 | 0.698 | 0.763 | 0.705 | 0.847 | 0.769 | 1.34 | 0.954 | 1.21 | 1.08 | 1.15
7 | PC-3 [JPC-3] | 1.22 |  | 1.11 |  | 1.11 | 0.906 | 0.868 | 0.937 | 0.841 | 0.892 | 0.474 | 0.44 | 0.441 | 0.468 | 0.467 | 0.796 | 0.74 | 0.832 | 0.785 | 0.856
8 | NCI-H1915 | 0.261 | 0.267 | 0.242 | 0.254 | 0.22 | 0.438 | 0.455 | 0.445 | 0.444 | 0.392 | 0.95 | 0.98 | 0.976 | 0.98 | 0.991 | 1 | 1.02 | 1.01 | 0.929 | 0.975
9 | NCI-H1666 | 0.685 | 0.733 | 0.73 | 0.707 | 0.716 | 0.644 | 0.722 | 0.543 | 0.603 | 0.51 | 0.823 | 0.666 | 0.677 | 0.701 | 0.557 | 0.804 | 0.847 | 0.638 | 0.89 | 0.819
10 | HCC-366 | 0.365 | 0.323 | 0.345 | 0.321 | 0.284 | 0.136 | 0.142 | 0.0931 | 0.12 | 0.0884 | 1.03 | 1.02 | 1.24 | 1.01 | 1.05 | 1.04 | 1.06 | 1.38 | 1.09 | 1.18
11 | SK-MES-1 | 0.802 | 0.738 | 0.85 | 0.626 | 0.554 | 0.877 | 0.926 | 0.948 | 0.98 | 0.9 | 0.417 | 0.466 | 0.488 | 0.432 | 0.465 |  |  |  |  | 
12 | NCI-H727 | 0.666 | 0.707 | 0.764 | 0.79 | 0.634 | 0.593 | 0.745 | 0.644 | 0.591 | 0.535 | 1.13 | 0.928 | 0.862 | 0.781 | 0.86 | 1.01 | 0.984 | 0.939 | 0.729 | 1.01
13 | RERF-LC-KJ | 0.981 | 0.857 | 0.954 | 0.942 | 0.852 | 0.508 | 0.491 | 0.433 | 0.517 | 0.413 | 0.874 | 0.892 | 0.984 | 0.868 | 0.829 | 1.09 | 1.14 | 1 | 1.18 | 1.29
14 | NCI-H1623 |  |  |  |  |  | 0.419 | 0.423 | 0.527 | 0.468 | 0.369 |  |  |  |  |  |  |  |  |  | 
15 | Calu-6 | 0.579 | 0.581 | 0.686 | 0.55 | 0.417 |  |  |  |  |  | 1.04 | 1.15 | 1.08 | 1.06 | 0.856 | 1.09 | 1.05 | 1.07 | 0.993 | 0.903
16 | LC-2-ad | 0.816 | 0.665 | 0.352 | 0.666 | 0.664 | 0.45 | 0.475 | 0.486 | 0.438 | 0.428 | 0.977 | 0.982 | 0.933 | 0.921 | 0.971 | 0.924 | 0.934 | 1.07 | 0.977 | 0.988
17 | CAL-12T | 0.654 | 0.661 | 0.697 | 0.725 | 0.65 | 0.362 | 0.589 | 0.242 | 0.294 | 0.308 | 0.669 | 0.698 | 0.794 | 0.748 | 0.902 | 1.04 | 1.08 | 0.904 | 0.977 | 0.934
18 | SK-LU-1 | 0.425 | 0.416 | 0.492 | 0.367 | 0.424 | 0.328 | 0.349 | 0.333 | 0.382 | 0.266 | 1.06 | 0.806 | 0.81 | 0.823 | 0.88 | 1.44 | 1.01 | 1.82 | 0.987 | 1.27
